Experiment [1] deals with T1, MPTP (Rattus norvegicus, UniProt Q09073).
T1 construct: Mitochondria were isolated from the livers of ˜250 g male Wistar rats; from tissue; host or cells: rat liver mitochondria (male Wistar rats)
T1 sequence (Q09073 2-298 limits assumed): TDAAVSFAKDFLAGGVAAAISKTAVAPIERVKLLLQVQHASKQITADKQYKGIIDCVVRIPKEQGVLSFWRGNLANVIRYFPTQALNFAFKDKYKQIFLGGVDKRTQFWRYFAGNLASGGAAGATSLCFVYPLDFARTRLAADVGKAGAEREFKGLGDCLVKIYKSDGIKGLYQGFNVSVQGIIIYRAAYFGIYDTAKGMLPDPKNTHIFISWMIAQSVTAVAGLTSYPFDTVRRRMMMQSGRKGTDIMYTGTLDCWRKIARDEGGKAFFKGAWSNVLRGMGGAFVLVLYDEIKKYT
It counts as biochemical.

Experiment [2] relates to BAE cells.
The subject of experiment [3] is BAE cells. Nature of the experiment: cells. To be noted: Bos taurus, read-out: IC50 (μM)*.
In experiment [4] the target is T1, MPTP. Nature of the experiment: Mitochondria swelling assay (MPT induction, decrease in light scattering at 520 nm). In kind it is biochemical. To be noted: for blocking of the effect of GSAO on pore opening: 100 μM GSAO with 3 mM Mg^2+, 100 μM EGTA, 10 μM BKA, 5 μM CsA or 8 mM ADP.
For experiment [5], the system named is BAE cells. Nature of the experiment: Cell viability assay, attached cells (methylene blue), proliferating or growth-quiescent cells. It counts as cell-based, bovine. The conditions noted are these: concentrations up to 1.0 mM.
Protocol: BAE or HMEC-1 cells were seeded at a density of 10^4 cells per cell into 96 well plates and allowed to adhere overnight and then treated as indicated.
Experiment [6] concerns the target T2, mitochondrial permeability transition pore (Rattus norvegicus, UniProt Q09073).
T2 construct: Mitochondria were isolated from the livers of ˜250 g male Wistar rats; from tissue; host or cells: rat liver mitochondria (male Wistar rats)
T2 sequence (Q09073 2-298 limits assumed): T1 sequence (Q09073 2-298 limits assumed)
In kind it is biochemical.

We go through 17 compounds from patent publication US9353152B2, “Induction of the mitochondrial permeability transition” (NewSouth Innovations Pty Limited, priority 2002, dated 2016).

Each structure is given as a SMILES string. Where two headings read alike, the source gives them in different places. Residues, ends and D or L forms follow the SMILES beside them. *: point of attachment. X2 = O=C(C*)Nc1ccc([As](O)O)cc1; X1 = O=C(C*)Nc1ccccc1[As](O)O

As a reminder, the IC50 is the concentration that inhibits the measured activity by half. Regarding `O=C(CS[C@@H]1O[C@H](CO)[C@@H](O)[C@H](O)[C@H]1O)Nc1ccc([As](O)O)cc1` [Compound 14, 1-S—(CH2CONHC6H4-p-As{OH}2)-β-D-glucose], at MPTP [1], the “MPTP Swelling Rate Increase/GSAO* Mean” value was determined as 1.1. Moreover, the “Fold Increase” value with BAE cells [2] is on record as 0.08. For the same compound, the IC50 in the experiment with BAE cells [2] (read-out: IC50 (μM)*) was determined as 106 µM.

Regarding `NCC(=O)NCC(=O)NC(CSCC(=O)Nc1ccc([As](O)O)cc1)C(=O)O` (stereo not drawn) [Compound 7, H-Gly-Gly-Cys(CH2CONHC6H4-p-As{OH}2)—OH], the “MPTP Swelling Rate Increase/GSAO* Mean” value on MPTP [1] is reported as 2.2. Also, in the experiment with BAE cells [2], the “Fold Increase” value was determined as 0.44. For the same compound, in the experiment on BAE cells [3], the IC50 turned out to be 19 µM.

For `N=C(N)NCCC[C@H](N)C(=O)NCC(=O)N[C@@H](CC(=O)O)C(=O)N[C@@H](CSCC(=O)Nc1ccc([As](O)O)cc1)C(=O)O` [Compound 6, H-Arg-Gly-Asp-Cys(CH2CONHC6H4-p-As{OH}2)—OH] (H-RGDC(X2)-OH), the “MPTP Swelling Rate Increase/GSAO* Mean” value on MPTP [1] was determined as 4.5. The “Fold Increase” value with BAE cells [2] came to 0.45. The IC50 in the experiment on BAE cells [2] (read-out: IC50 (μM)*) was 18.2 µM.

Turning to `N[C@@H](CCC(=O)N[C@@H](CSCC(=O)Nc1ccc(C(=O)O)cc1)C(=O)NCC(=O)O)C(=O)O` [GSCA, 4-(N—((S-glutathionyl)acetyl)amino)benzoic acid], the “swelling of isolated rat liver mitochondria” value at MPTP [4] (GSAO 25-200 μM, GSAA, GSCA 100 μM, 60 min) is reported as “without effect”. The “effect on the viability of proliferating BAE cells” value with BAE cells [5] was “no significant effect”.

As for `Nc1ncnc2c1ncn2[C@@H]1O[C@H](COP(=O)(O)OP(=O)(O)O)[C@@H](O)[C@H]1O` [ADP], the “blocking of the effect of GSAO on pore opening” value (“blocking of the effect of GSAO” for short) at MPTP [4] is given as “blocked”. In addition, the “blocking of the effect of o-GSAO on pore opening” value in experiment [6] is listed as “blocked”.

For the compound `O=C(O)CCSCC(=O)Nc1ccc([As](O)O)cc1` [Compound 11, 3-S—(CH2CONHC6H4-p-As{OH}2)-1-propionic acid], on MPTP [1], the “MPTP Swelling Rate Increase/GSAO* Mean” value is given as 1.3. Moreover, the “Fold Increase” value in the experiment on BAE cells [2] turned out to be 0.05. Besides, in the experiment on BAE cells [2] (read-out: IC50 (μM)*), the IC50 was 170 µM.

Take `NC(=O)CCC(NC(=O)C(Cc1ccccc1)NC(=O)C(Cc1ccc(O)cc1)NC(=O)C(N)CSCC(=O)Nc1ccc([As](O)O)cc1)C(=O)NC(CC(N)=O)C(=O)NC(CSCC(=O)Nc1ccc([As](O)O)cc1)C(=O)O` (stereo not drawn) [Compound 9, H-Cys-(CH2CONHC6H4-p-As{OH}2)-Tyr-Phe-Gln-Asn-Cys-(CH2CONHC6H4-p-As{OH}2)—OH] (H-C(X2)YFQNC(X2)-OH; configuration not given here): the “Fold Increase” value in the experiment on BAE cells [2] came out at 0.64. In addition, the half-maximal inhibitory concentration (IC50) in the experiment with BAE cells [2] (72 h) came out at 12.9 µM.

On to `O=C(O)CC(SCC(=O)Nc1ccc([As](O)O)cc1)C(=O)O` (stereo not shown) [Compound 13, 1-S—(CH2CONHC6H4-p-As{OH}2)-mercaptosuccinic acid], for which the “MPTP Swelling Rate Increase/GSAO* Mean” value on MPTP [1] was determined as 1.6. In addition, the “Fold Increase” value in the experiment with BAE cells [2] amounted to 0.19. The IC50 in the experiment with BAE cells [2] (read-out: IC50 (μM)*) is 43.3 µM.

As to `NCC(=O)NCC(=O)N[C@@H](CSCC(=O)Nc1ccccc1[As](O)O)C(=O)O` [Compound 22, H-Gly-Gly-Cys(CH2CONHC6H4-o-As{OH}2)—OH], the “MPTP Swelling Rate Increase/GSAO* Mean” value on MPTP [1] came out at 6.9. For the same compound, in the experiment with BAE cells [2], the “Fold Increase” value amounted to 46.9 and the “times more active than the corresponding p-arsenoxide analogue” value is reported as “approximately 106 times”. Besides, in the experiment with BAE cells [2] (read-out: IC50 (μM)*), the half-inhibitory concentration (IC50) was 0.18 µM.

As to `O=C(O)Cn1nnnc1SCC(=O)Nc1ccc([As](O)O)cc1` [Compound 21, 5-S—(CH2CONHC6H4-p-As{OH}2)-1-tetrazolacetic acid], the “MPTP Swelling Rate Increase/GSAO* Mean” value on MPTP [1] is on record as 2.8. Further, the “Fold Increase” value in the experiment on BAE cells [2] was 0.16. For the same compound, the IC50 in the experiment with BAE cells [3] was 51.3 µM.

Take `O=C(O)CN(CCOCCOCCN(CC(=O)O)CC(=O)O)CC(=O)O` [EGTA, ethylene glycol-bis(beta-aminoethyl ether)-N,N,N′N′-tetraacetic acid]: the “blocking of the effect of GSAO” value on MPTP [4] is given as “blocked”. Further, in experiment [6], the “blocking of GSAO-dependent swelling” value is on record as “blocked”.

Consider `[Mg+2]` [Mg^2+], for which the “blocking of the effect of GSAO” value on MPTP [4] is listed as “blocked”. Also, the “blocking of GSAO-dependent swelling” value in experiment [6] (FIG. 18 as printed) is recorded as “blocked”.

For the compound `CC(C)C(N)C(=O)NC(C(=O)NC(CSCC(=O)Nc1ccc([As](O)O)cc1)C(=O)NCC(=O)O)C(C)O` (stereo not drawn) [Compound 8, H-Val-Thr-Cys(CH2CONHC6H4-p-As{OH}2)-Gly-OH] (H-VTC(X2)G-OH; configuration not given here), on MPTP [1], the “MPTP Swelling Rate Increase/GSAO* Mean” value was 2.1. In the experiment on BAE cells [2], the “Fold Increase” value was found to be 0.95. Also, the IC50 with BAE cells [3] is 8.8 µM.

Regarding `O=C(O)CCC(NC(=O)NC(CSCC(=O)Nc1ccc([As](O)O)cc1)C(=O)O)C(=O)O` (stereo not shown) [Compound 3, retro-HO-Cys-(CH2CONHC6H4-p-As{OH}2)-carbonyl-Glu-OH], the “MPTP Swelling Rate Increase/GSAO* Mean” value at MPTP [1] was found to be 2.4. In addition, the “Fold Increase” value in the experiment with BAE cells [2] stood at 0.07. Besides, the 50% inhibitory concentration (IC50) in the experiment on BAE cells [2] (read-out: IC50 (μM)*) was found to be 122 µM.

On to `CO[C@H](C/C=C\C=C\CC/C=C/C[C@H](C)/C=C/C(=C\C(=O)O)CC(=O)O)/C(C)=C\C=C(/C)C(=O)O` [BKA, Bonkrekic acid], for which the “blocking of the effect of GSAO” value at MPTP [4] was “blocked”.

With `O=C(CSCCCS(=O)(=O)O)Nc1ccc([As](O)O)cc1` [Compound 10, 3-S—(CH2CONHC6H4-p-As{OH}2)-1-propanesulfonic acid], at MPTP [1], the “MPTP Swelling Rate Increase/GSAO* Mean” value was 2.0. Also, the “Fold Increase” value in the experiment on BAE cells [2] came to 0.21. Further, in the experiment with BAE cells [2] (read-out: IC50 (μM)*), the IC50 was found to be 39 µM.

`CC(C)C(N)C(=O)NC(C(=O)NC(CSCC(=O)Nc1ccccc1[As](O)O)C(=O)NCC(=O)O)C(C)O` (stereo not drawn) [Compound 23, H-Val-Thr-Cys(CH2CONHC6H4-o-As{OH}2)-Gly-OH] (H-VTC(X1)G-OH; configuration not given here): the “MPTP Swelling Rate Increase/GSAO* Mean” value on MPTP [1] is listed as 5.4. For the same compound, in the experiment with BAE cells [2], the “Fold Increase” value is 19.8 and the “times more active than the corresponding p-arsenoxide analogue” value is “approximately 20 times”. For the same compound, in the experiment with BAE cells [2] (read-out: IC50 (μM)*), the IC50 amounted to 0.42 µM.
